Four compounds from ChEMBL document CHEMBL3045232, “Inhibition of photophosphorylation and electron transport chain in thylakoids by lasiodiplodin, a natural product from Botryosphaeria rhodina” (J Agric Food Chem, 2007) can be followed below.

Assay [1] relates to Spinacia oleracea. The assay is described as follows: Inhibition of ATP sythesis in freshly lysed Spinacia oleracea (spinach) chloroplasts. It counts as functional, organism-based.
The subject of assay [2] is Spinacia oleracea. Nature of the assay: Induction of Chlorophyll a fluorescence induction curve in freshly lysed chloroplasts of Spinacia oleracea (spinach) at 10 uM. It counts as functional, organism-based.
The target in assay [3] is T1, Chloroplast coupling factor 1 (Spinacia oleracea) (UniProt P00825+P06453+P69447+P06451+P05435+P31853+P06450+P11402+P00833). The assay is described as follows: Inhibition of Mg2+ ATPase activity of coupling factor 1 in chloroplasts of Spinacia oleracea (spinach) leaves at 150 uM. The settings on record: values are per cent of control. The assay is classed as protein-complex assay.

The test system of assay [4] is Spinacia oleracea. The assay is described as follows: Induction of Chlorophyll a fluorescence induction curve in freshly lysed chloroplasts of Spinacia oleracea (spinach) at 300 uM. It counts as functional, organism-based.
Assay [5] addresses T1, Chloroplast coupling factor 1 (Spinacia oleracea). The assay is described as follows: Inhibition of Mg2+ ATPase activity of coupling factor 1 in chloroplasts of Spinacia oleracea (spinach) leaves at 50 uM. It counts as protein-complex assay. The settings on record: values are per cent of control.
Assay [6] has the same target. The assay is described as follows: Inhibition of Mg2+ ATPase activity of coupling factor 1 in chloroplasts of Spinacia oleracea leaves at 25 uM. The assay is classed as protein-complex assay. The note with it: values are per cent of control.
Assay [7] has the same target. Nature of the assay: Inhibition of Ca2+ ATPase activity of coupling factor 1 in chloroplasts of Spinacia oleracea (spinach) leaves at 50 uM. It counts as protein-complex assay.
For assay [8] the target is unchanged. Nature of the assay: Inhibition of Ca2+ ATPase activity of coupling factor 1 in chloroplasts of Spinacia oleracea (spinach) leaves at 150 uM. The assay is classed as protein-complex assay.
The target is the same in assay [9]. Nature of the assay: Inhibition of Ca2+ ATPase activity of coupling factor 1 in chloroplasts of Spinacia oleracea (spinach) leaves at 25 uM. It counts as protein-complex assay.
Assay [10] shares this target. Nature of the assay: Inhibition of H+ ATPase activity of coupling factor 1 in chloroplasts of Spinacia oleracea (spinach) leaves at 200 uM. The assay is classed as protein-complex assay.
The target is the same in assay [11]. The assay is described as follows: Inhibition of H+ ATPase activity of coupling factor 1 in chloroplasts of Spinacia oleracea (spinach) leaves at 50 uM. The assay is classed as protein-complex assay.
Assay [12] has the same target. The assay is described as follows: Inhibition of H+ ATPase activity of coupling factor 1 in chloroplasts of Spinacia oleracea (spinach) leaves at 150 uM. It counts as protein-complex assay.
The subject of assay [13] is Spinacia oleracea. Nature of the assay: Inhibition of thylakoid electron transport chain in intact chloroplasts of Spinacia oleracea (spinach) leaves assessed as inhibition of uncoupled PS2 electron transport from […] to DCPIP at 300 uM relative to control. The note with it: values are per cent of control.
The subject of assay [14] is Spinacia oleracea. The assay is described as follows: Inhibition of thylakoid electron transport chain in intact chloroplasts of Spinacia oleracea (spinach) leaves assessed as inhibition of uncoupled PS2 electron transport from […] to DCPIP at 200 uM relative to control. The note with it: values are per cent of control.
In assay [15] the test system is Spinacia oleracea. The assay is described as follows: Inhibition of thylakoid electron transport chain in intact chloroplasts of Spinacia oleracea (spinach) leaves assessed as inhibition of uncoupled PS2 electron transport from […] to DCPIP at 100 uM relative to control. The note with it: values are per cent of control.
Assay [16] relates to Spinacia oleracea. The assay is described as follows: Inhibition of thylakoid electron transport chain in intact chloroplasts of Spinacia oleracea (spinach) leaves assessed as inhibition of uncoupled PS2 electron transport from water to SiM at 400 uM relative to control. The note with it: values are per cent of control.
Assay [17] relates to Spinacia oleracea. The assay is described as follows: Inhibition of thylakoid electron transport chain in intact chloroplasts of Spinacia oleracea (spinach) leaves assessed as inhibition of uncoupled PS2 electron transport from water to SiM at 300 uM relative to control. The note with it: values are per cent of control.
Assay [18] relates to Spinacia oleracea. Nature of the assay: Inhibition of thylakoid electron transport chain in intact chloroplasts of Spinacia oleracea (spinach) leaves assessed as inhibition of uncoupled PS2 electron transport from water to SiM at 200 uM relative to control. The settings on record: values are per cent of control.
Assay [19] relates to Spinacia oleracea. The assay is described as follows: Inhibition of thylakoid electron transport chain in intact chloroplasts of Spinacia oleracea (spinach) leaves assessed as inhibition of uncoupled PS2 electron transport from water to SiM at 100 uM relative to control. The settings on record: values are per cent of control.
In assay [20] the test system is Spinacia oleracea. The assay is described as follows: Inhibition of ATP sythesis in freshly lysed Spinacia oleracea (spinach) chloroplasts at 150 uM. The assay is classed as functional, organism-based.
For assay [21], the system named is Spinacia oleracea. Nature of the assay: In vitro inhibition of photophosphorylation in intact chloroplasts of Spinacia oleracea (spinach) leaves assessed as inhibition of uncoupled electron transport from water to methylviologen at 300 uM. The assay is classed as functional.
Assay [22] relates to Spinacia oleracea. The assay is described as follows: In vitro inhibition of photophosphorylation in intact chloroplasts of Spinacia oleracea (spinach) leaves assessed as phosphorylating nonyclic electron transport from water to methylviologen. It counts as functional.
Assay [23] deals with Spinacia oleracea. Nature of the assay: In vitro inhibition of photophosphorylation in intact chloroplasts of Spinacia oleracea (spinach) leaves assessed as basal electron transport from water to methylviologen. The assay is classed as functional.

The source made the active and inactive calls. The calls are words filed in the database; no cut-off is given here.

One may read the residual activity as the activity still measured, relative to the control. Broadly, the inhibition is the percentage by which the read-out fell short of the control.

As for `CC(C)[C@@H](C)/C=C/[C@@H](C)[C@H]1CC[C@H]2C3=CC=C4C[C@@H](O)CC[C@]4(C)[C@H]3CC[C@]12C`, in the assay on Spinacia oleracea [1], the I50 entry was “inactive”.
In the case of `O=c1[nH]cnc2c1ncn2[C@@H]1O[C@H](CO)[C@@H](O)[C@H]1O`, the I50 entry in the assay on Spinacia oleracea [1] is “inactive”.
On to `OCCc1ccc(O)cc1`, for which, in the assay with Spinacia oleracea [1], the I50 entry is “inactive”.
On to `COc1cc(O)cc2c1C(=O)O[C@@H](C)CCCCCCC2` [LASIODIPLODIN], for which the outcome with Spinacia oleracea [2] and with Spinacia oleracea [4] was Active. Besides, the residual activity in [3] was found to be 49.4%; in [5], 54.5%; in assay [6] it was 62.3%; in the assay with Spinacia oleracea [13] it was 27%; in the assay with Spinacia oleracea [14], 75%; with Spinacia oleracea [15], 87%. Also, the residual activity in the assay with Spinacia oleracea [16] is 0%; in the assay with Spinacia oleracea [17], 40%; with Spinacia oleracea [18] it was 70%; in the assay with Spinacia oleracea [19], 80%. For the same compound, the inhibition in assay [7] stood at 87.5%; in [8], 84.1%; in assay [9], 95.6%; in assay [10] it was 97.7%; in assay [11], 95%; in assay [12], 98.5%. Besides, the inhibition in the assay on Spinacia oleracea [20] and in the assay on Spinacia oleracea [21] was 100% each time. Further, the inhibition entry in the assay on Spinacia oleracea [22] and with Spinacia oleracea [23] was “Active” each time. For the same compound, the IC50 in the assay on Spinacia oleracea [1] (read-out: I50) amounted to 35.6 µM.
